A melting point compilation (Tetko et al.; mined from patent text by program, amines drawn as free bases though some values may be those of a salt)

melting point	SMILES
208 to 215 °C	COc1cc(N2C(=S)N3CCCCC3C2O)c(F)cc1Cl (stereo not given)
221 to 222 °C	CSc1cc2n(c(=O)n1)C(C)N=C2 (stereo not given)
174 to 176 °C	CC(=O)c1ncn(-c2ccccc2)n1
247 °C	O=C(Nc1ccc2ccccc2c1-c1c(P(=O)(c2ccccc2)c2ccccc2)ccc2ccccc12)c1ccccc1
121 to 126 °C	CN(C(=O)OC(C)(C)C)[C@H](Cc1ccc2ccccc2c1)C(=O)N1CCc2ccccc2C1
80 °C	CC(C)c1nc2c(s1)C(=O)N(c1cccc(C(F)(F)F)c1)C2=O
196 to 198 °C	CCOC(=O)c1nc2c(Cl)nc3cc(C(F)(F)F)ccc3n2c1CBr
155 °C	CSc1ccc(N2CCOCC2)c(NC(=N)C(C)C)c1
46 to 47 °C	c1cncc(CCc2ccc(C3OCCO3)cc2)c1
79 to 82 °C	CCC(CC)Oc1cc(C)nc(Nc2c(C)cc(C)cc2C)c1NC(=O)CCl
243 to 245 °C	COc1ccccc1-c1cc2c(ccn2C)c2c1C(=O)NC2=O
150 °C	CO[C@@H]1CN(CCCn2nc(Cl)ccc2=O)CC[C@@H]1NC(=O)c1cc(Cl)c(N)c2c1OCCC2 (relative stereo)
29 °C	CCCCCCCCC(=O)N(C)O
148 to 150 °C	O=c1[nH]c(-n2cccn2)nc2ccccc12
60 °C	C=CCC=CCC=CCCCCCCCc1cccc(O)c1
223 to 225 °C	CC1(COc2ccc(CC3SC(=O)NC3=O)cc2)CCc2cc(C(=O)O)ccc2O1 (stereo not given)
133 to 136 °C	CS(=O)c1nccc(-c2cn(Cc3ccccc3C#N)c(=O)n2-c2ccc(F)cc2)n1 (stereo not given)
56 to 59 °C	c1ccc(Oc2cccnc2N2CCNCC2)cc1
258 to 260 °C	CC(=O)Nc1cnn2c(C)nc3ccccc3c12
165 to 167 °C	COc1c(Cl)ccc(-c2nc(N)c(C(C)OC)c(C(=O)O)n2)c1F (stereo not given)
81 °C	COc1ccc(-c2sc3c(c2OC(C)=O)CCCC3)cc1
177 to 179 °C	O=C(CC(=O)c1ccccc1)Nc1cc(Cl)c(Cl)cc1[N+](=O)[O-]
> 260 °C	O=C(c1ccc(Cl)cc1)c1cnc2ccc(Cl)cc2c1O
92 to 96 °C	OCc1ccccc1OCc1ncc2ccccc2n1
120 to 124 °C	CN(C)Cc1ccc(CSCCNC2=NS(=O)(=O)c3cscc32)o1

melting point	SMILES
288 to 289 °C	CN(c1ccc(C(=O)O)cc1)c1cc2c3c(c1)CCCC3CCC2
73 to 75 °C	COc1ccc2c(ccn2S(=O)(=O)c2ccccc2)c1
295 to 296 °C	COc1ccccc1-n1c(=O)[nH]c2c(C(N)=O)nc(-c3cccc([N+](=O)[O-])c3)nc21
94 to 95 °C	O=C(Nc1ccc(C(=O)N2Cc3ccccc3-c3ccccc32)cc1)c1ccc(Cl)c(Cl)c1
261 to 263 °C	CC1=CSC(n2ccc(OCc3ccc(C(F)(F)F)o3)cc2=O)N1C(=O)O (stereo not given)
106 to 108 °C	CC(=NOCCc1ccc(C)cc1)C(=O)O
42 to 43 °C	CCOC(=O)c1ccccc1Nc1ccc(OC)cc1C
178 to 180 °C	O=C(O)c1ccccc1-c1nnc(-c2ccccc2)s1
146 to 149 °C	CC1C(=O)N(c2cc(Cl)cc(Cl)c2)CS1=O (stereo not given)
187 to 188 °C	CN(C)C(=O)N1CCC(Nc2ncc3ncnc(Nc4ccc(F)c(Cl)c4)c3n2)CC1
89 to 91 °C	COC(=O)c1cccc(-c2ccc(OC)c3c2CC(C)(C)O3)c1
217 to 220 °C	Nc1cc(Sc2cccc3cnccc23)c(F)cc1[N+](=O)[O-]
277 to 279 °C	O=C(O)c1cc(F)c2cccnc2c1O
92 °C	O=C(CF)CCCN1C(=O)c2ccccc2C1=O
164 to 167 °C	Cc1nc(N2CCCCC2)ccc1N1CCCn2c1nc1c(Cl)ccc(C(OC(F)F)C(F)(F)F)c12 (stereo not given)
263 to 265 °C	CN1CCN(C2c3ccccc3-c3[nH]c(=O)c(=O)[nH]c32)CC1 (stereo not given)
30 to 33 °C	COc1cc(CCI)cc(OC)c1
109 to 110 °C	COc1cc(C(C)C)c2c(c1)S(=O)(=O)N(COc1cc(Cl)nn1-c1ccccc1)C2=O
147 to 149 °C	S=C=Nc1ccc2sc(-c3cccs3)nc2c1
140 to 141 °C	O=C1c2c([N+](=O)[O-])cccc2S(=O)(=O)N1CCO
300 °C	COc1ccc(Cn2c(C)cc3c(=O)[nH][nH]c(=O)c32)cc1
113 to 115 °C	CS(=O)(=O)Nc1ccccc1OC1CCCCC1
159 to 161 °C	COc1ccc(CCNC(=O)CCCCC(=O)NCCc2ccc(OC)c(OC)c2Cl)c(Cl)c1OC
174 to 176 °C	OC1CCCc2nc3ccccc3c(NCc3ccc(C(F)(F)F)cc3)c21 (stereo not given)
101 to 103 °C	CCNCCCN1c2ccccc2N(C)C(=O)c2c(C)cc(C)nc21

melting point	SMILES
48 to 49 °C	CCCCCCCCCCCCCCOC(=O)CCC(=O)O
81 to 82 °C	O=C1CCCc2ccccc2N1Cc1cccc(Br)c1
189 to 193 °C	O=c1ccn(CCO)c(C(O)c2ccc(Br)cc2)c1O (stereo not given)
121 to 123 °C	COC(=O)Cc1nc(-c2cc(C(C)(C)C)c(O)c(C(C)(C)C)c2)oc1C
106 to 108 °C	CC(=Cc1ccc(N)cc1)c1ccc2c(c1)C(C)(C)CCC2(C)C
187 to 188 °C	O=C(NO)[C@H]1CN(C(=O)Nc2ccccc2)CCN1S(=O)(=O)c1ccc(-c2ccc(F)cc2)s1
107 to 109 °C	COc1ccc(-n2nc(CCC#N)cc2-c2ccc(Cl)cc2)cc1
188 to 189 °C	CCOC(=O)Nc1c(C(=O)c2cccc(Cl)c2)[nH]c2cc(Cl)ccc12
139 to 140 °C	O=C(O)c1ccccc1COc1ccc(CCCO)cc1
77 to 80 °C	CCNC(=O)c1sc(C)c(C)c1[Si](C)(C)C
162 to 165 °C	CCc1ccc2c(c1)C=Cc1cc(CC)ccc1C2c1cn(Cc2nc(C(=O)O)cs2)c(=O)[nH]c1=S
151 °C	CCC1(c2ccc(Cl)cc2)OCc2c1cnc(CN(C)C)c2O (stereo not given)
203 to 206 °C	CCCOc1ccccc1-c1ncc(C(=O)O)c(=O)[nH]1
95 to 98 °C	CCc1oc2ccccc2c1C(=O)c1ccc(OCCOS(=O)(=O)c2ccc(C)cc2)cc1
187 to 188 °C	CCOC(=O)C(=O)NNc1ccc([N+](=O)[O-])cc1
203 to 205 °C	NS(=O)(=O)Cc1ccc2oc([N+](=O)[O-])c(-c3ccccc3)c2c1
123 to 126 °C	CN(C)CCC1=Cc2ccc(OCc3ccc(-c4ccccc4)cc3)cc2CC1
175 °C	COC(=O)c1ccc(NCc2cc(O)ccc2O)cc1
147 °C	CC1C(=O)N(c2ccccc2)N=C1N (stereo not given)
162 to 165 °C	CC(=O)Nc1nc(CCc2ccc(CO)cc2)cs1
121 to 122 °C	Cc1c(C)c2c(c(C)c1NC(=O)OC(C)(C)C)C(c1ccc(C(C)C)cc1)CO2 (stereo not given)
98 to 100 °C	C=Cc1ccc2c(c1)CC(CNC(=O)OC(C)(C)C)CC2 (stereo not given)
85 to 86 °C	CCOC(=O)COc1ccc(NC(=O)OCc2ccccc2)cc1
139 to 141 °C	CCc1oc(-c2ccc(C(F)(F)F)cc2)cc1CCC(=O)Nc1cccc(CSCC(=O)O)c1
58 to 59 °C	O=C(O)CCCCCCCCCSc1ccccc1O

melting point	SMILES
58 to 59 °C	CO/C=C(/C(=O)OC)n1cccc1C=O
130 to 132 °C	CN1CCCCC1CCCc1ccccc1NC(=O)C=Cc1ccccc1 (stereo not given)
157 to 159 °C	CCOC(=O)C1=C(C)NC(=S)N(C(=O)OC(C)C)C1c1cccc(Cl)c1Cl (stereo not given)
184 to 188 °C	Nc1nc(-c2ccco2)c(C(=O)C2CCOCC2)s1
90 to 91 °C	CCCCS(=O)c1ccc(C=O)nc1 (stereo not given)
96 °C	COC1CCN(C(=O)COc2cc(-c3ccccc3)nc3ccccc23)CC1
100 °C	CCCN(CCC)C(=O)C1CSc2ccc(N)cc21 (stereo not given)
194 to 195 °C	COc1cc(COc2cc(/C=C/C(=O)O)n(-c3ccccc3)n2)ccc1OCc1nc(-c2ccccc2)oc1C
86 to 88 °C	COC(=O)CCC(NC(=O)c1cn(C(c2ccccc2)(c2ccccc2)c2ccccc2)c(I)n1)C(=O)OC (stereo not given)
95.2 to 96.3 °C	CC(C)(C)OC(=O)NCCCc1ccc2c(n1)NCCC2
169 to 170 °C	CC(Nc1ccccc1)c1ccc(C(C)Nc2ccccc2)cc1 (stereo not given)
133 to 136 °C	CC(C)(C)c1cc(Cc2nc3cc(Cl)cc(Br)c3o2)cc(C(C)(C)C)c1O
204 °C	O=C(OCc1ccncc1)c1ccc2[nH]c(=O)n(Cc3ccc4c(c3)OCO4)c(=O)c2c1
86 to 88 °C	COC(=O)c1ncc(C)cc1S(N)(=O)=O
95 °C	O=c1ncc(Cl)cn1COCc1cccc(C(F)(F)F)c1
170 to 172 °C	Cn1cnc(COc2nn3c(-c4ccccc4F)nnc3cc2C23CCC(C2)C3)n1
105 to 107 °C	COC(=O)c1sccc1NC(=O)OC(C)C
246 to 247 °C	Cc1ccc(C(=O)Nc2cc(Cl)c(O)c(Cl)c2)c(O)c1
213 to 214 °C	Cc1c(-c2ccc(C(C)(C)C)cc2)[nH]c2nccnc12
150 to 154 °C	CS(=O)c1c(C=NO[Si](C)(C)C(C)(C)C)nn(-c2c(Cl)cc(C(F)(F)F)cc2Cl)c1N (stereo not given)
240 to 242 °C	COc1cc(-c2nc(C)c(C(C)=NNC(N)=O)s2)cc(OC)c1OC
116 to 118 °C	COC(=O)C1=C(C)NC(c2sc(C)nc2C)=NC1c1ccc(F)cc1Cl (stereo not given)
15 °C	C1COCCOCCOCCNCCOCCOCCOCCN1

SMILES	melting point
CN1CCC2(C)c3cc(O)cc(Br)c3N(C)C12 (stereo not given)	175 to 177 °C
O=C(NC1CN2CCC1CC2)c1cccc2oc(-c3ccc(F)cc3)nc12 (stereo not given)	208 to 209 °C
NP(N)(=O)OCC(Cl)(Cl)Cl	86 to 87 °C
O=C1CCCN1c1ccc(CCN2CCN(c3ccccc3Cl)CC2)cc1	132 °C
N#Cc1ccc(NC(=O)NC(=O)c2ccccc2F)c(Cl)c1Cl	298 to 300 °C
COc1cc(OP(=O)(OC)OC)c(C(=O)c2ccccc2)s1	76 °C
CN1CCN(Cc2ccccc2F)C(C2=NCCN2)C1 (stereo not given)	160 to 162 °C
